Values of other authors as cited in patent US20150133410A1, “TOPICAL OPHTHALMIC, OTIC, AND NASAL COMPOSITIONS OF CIPROFLOXACIN” (priority 2013, published 2015).
Like-named read-outs stand apart in the source and are kept apart here.

Details: aqueous solutions of about 0.2 to about 1 weight percent

## O=C(O)c1cn(C2CC2)c2cc(N3CCNCC3)c(F)cc2c1=O [ciprofloxacin]
5° C.
  pH above which crystalline precipitation of ciprofloxacin occurs: above 5
Room temperature
  pH above which crystalline precipitation of ciprofloxacin occurs: above 5.5
